Data published in the supplement of paper PMC11208160.

Experiment: recombinant UMI read abundance after kanamycin selection (control-corrected) (log10(CPM+1)); higher = more efficient recombination; extreme values may be limits of the assay; sequences stand for … in AGTGCAGAGAAAATCGGCCAGTTTTCTCTGCCTGCAGTCCGCATGCCGTGGGACCCCTTGGGTTCTAACCTGTTGCCTAGATTTATGCAGCGGACTGCCTTTCTCCCAAAGTGATAAACCGG…AGGTTGGTTTCACT; site = the 11-nt donor
Method in brief: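 Pooled Escherichia coli screen of donor and donor-binding-loop pairs for the IS621 bridge recombinase. Each pair sits with a 12-nt UMI on a plasmid carrying a promoterless kanamycin gene. The library was co-electroporated with a target plasmid encoding a fixed target and T7-inducible recombinase, then plated with IPTG (0.07 mM) plus kanamycin, or unselected, each in two replicates. Recombinant UMIs were PCR-amplified across the donor–target junction and sequenced. Counts became CPM, averaged over replicates, scaled by control-derived factors and reported as log10(CPM+1).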
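Further: IS621 bridge recombinase in Escherichia coli cells against a fixed T5 target plasmid.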

| Sequence | recombinant UMI read abundance (log10) |
| --- | --- |
| CGATCATCATGGACCGGTTTTCCCGGTAATCCGTATTTGCT (site CGGTCATCTAA) | 0.0171 |
| CGATCATCATGGACCGGTTTTCCCGGTAATCCGTATTTGCT (site CGGTCATCTAG) | 0 |
| CGATCATCATGGACCGGTTTTCCCGGTAATCCGTATTTGCT (site CGGTCATCTTG) | 0.00419 |
| CGATCATCATGGACCGGTTTTCCCGGTAATCCGTATTTGCT (site CGGTCTTCTAG) | 0.0105 |
| CGATCATCATGGACCGGTTTTCCCGGTAATCCGTATTTGCT (site CGGTTATCTAG) | 0 |
| CGATCATCATGGACCGGTTTTCCCGGTAATCCGTATTTGCT (site CGTACATCTAG) | 1.61 |
| CGATCATCATGGACCGGTTTTCCCGGTAATCCGTATTTGCT (site CGTTCACCTAG) | 0 |
| CGATCATCATGGACCGGTTTTCCCGGTAATCCGTATTTGCT (site CGTTCATCTAG) | 1.53 |
| CGATCATCATGGACCGGTTTTCCCGGTAATCCGTATTTGCT (site CGTTCATCTAT) | 0 |
| CGATCATCATGGACCGGTTTTCCCGGTAATCCGTATTTGCT (site CGTTCATCTGG) | 0 |
| CGATCATCATGGACCGGTTTTCCCGGTAATCCGTATTTGCT (site CGTTCGTCTAG) | 0.0117 |
| CGATCATCATGGACCGGTTTTCCCGGTAATCCGTATTTGCT (site CGTTGATCTAG) | 0 |
| CGATCATCATGGACCGGTTTTCCCGGTAATCCGTATTTGCT (site CTACCATCTAG) | 1.69 |
| CGATCATCATGGACCGGTTTTCCCGGTAATCCGTATTTGCT (site CTATAATCTAG) | 1.08 |
| CGATCATCATGGACCGGTTTTCCCGGTAATCCGTATTTGCT (site CTATCAACTAG) | 0 |
| CGATCATCATGGACCGGTTTTCCCGGTAATCCGTATTTGCT (site CTATCATCTAC) | 0.00862 |
| CGATCATCATGGACCGGTTTTCCCGGTAATCCGTATTTGCT (site CTATCATCTAG) | 1.22 |
| CGATCATCATGGACCGGTTTTCCCGGTAATCCGTATTTGCT (site CTATCATCTCG) | 0.0222 |
| CGATCATCATGGACCGGTTTTCCCGGTAATCCGTATTTGCT (site CTATCCTCTAG) | 0 |

| Sequence | recombinant UMI read abundance (log10) |
| --- | --- |
| CGATCATCATGGACCGGTTTTCCCGGTAATCCGTATTTGCT (site CTCTCATCTAG) | 0.961 |
| CGATCATCATGGACCGGTTTTCCCGGTAATCCGTATTTGCT (site GAATCATCTAG) | 0 |
| CGATCATCATGGACCGGTTTTCCCGGTAATCCGTATTTGCT (site GGAACATCTAG) | 0.00516 |
| CGATCATCATGGACCGGTTTTCCCGGTAATCCGTATTTGCT (site GGATCACCTAG) | 0.00443 |
| CGATCATCATGGACCGGTTTTCCCGGTAATCCGTATTTGCT (site GGATCATCTAG) | 0.606 |
| CGATCATCATGGACCGGTTTTCCCGGTAATCCGTATTTGCT (site GGATCATCTAT) | 0.0067 |
| CGATCATCATGGACCGGTTTTCCCGGTAATCCGTATTTGCT (site GGATCATCTGG) | 0 |
| CGATCATCATGGACCGGTTTTCCCGGTAATCCGTATTTGCT (site GGATCGTCTAG) | 0.00614 |
| CGATCATCATGGACCGGTTTTCCCGGTAATCCGTATTTGCT (site GGATGATCTAG) | 0 |
| CGATCATCATGGACCGGTTTTCCCGGTAATCCGTATTTGCT (site GGTTCATCTAG) | 0 |
| CGATCATCATGGACCGGTTTTCCCGGTAATCCGTATTTGCT (site TGACCATCTAG) | 1.21 |
| CGATCATCATGGACCGGTTTTCCCGGTAATCCGTATTTGCT (site TGATAATCTAG) | 0 |
| CGATCATCATGGACCGGTTTTCCCGGTAATCCGTATTTGCT (site TGATCAACTAG) | 0 |
| CGATCATCATGGACCGGTTTTCCCGGTAATCCGTATTTGCT (site TGATCATCTAC) | 0.00378 |
| CGATCATCATGGACCGGTTTTCCCGGTAATCCGTATTTGCT (site TGATCATCTAG) | 0.864 |
| CGATCATCATGGACCGGTTTTCCCGGTAATCCGTATTTGCT (site TGATCATCTCG) | 0.00793 |
| CGATCATCATGGACCGGTTTTCCCGGTAATCCGTATTTGCT (site TGATCCTCTAG) | 0 |
| CGATCATCATGGACCGGTTTTCCCGGTAATCCGTATTTGCT (site TGCTCATCTAG) | 0 |
